Reference: patent US20240383955A1, “MODIFIED ANTIMICROBIAL PEPTIDES” (priority 2021, published 2024)
≈ marks a conversion by molar mass, not a printed value. Like-named read-outs stand apart in the source and are kept apart here. Square brackets hold non-standard residues; d marks the D form. Peptide text beside a SMILES is read from it. Dab = NCC[C@H](N)C(=O)O

How the values were obtained:
[1] = test system: F. graminearum
[2] = test system: B. cinerea; test: In vitro antifungal activity (MIC) in SFM culture media, with or without added salts
[3] = test system: B. cinerea, F. graminearum, F. oxysporum and P. capsici; format: cell-based; settings: in vitro, low cationic conditions; for antifungal activity relative to the wild-type GMA4C_AC control: against B. cinerea, F. graminearum, F. oxysporum and P. capsici
[4] = test system: Coccidioides sp.; format: cell-based; settings: Table 8
[5] = test system: Fusarium (F. oxysporum); test: MIC by CLSI M27/M38 methodology; format: cell-based; settings: Table 8
Description: (§1) Testing for antifungal activity used half-strength potato dextrose broth for peptides and RPMI for comparator antifungals fluconazole and voriconazole. CLSI M27 and M38 methodologies used for to measure MICs. Minimal Inhibitory Concentration (MIC) is the concentration of the compound, protein, or peptide at which there is no significant growth of the microorganism relative to the growth of the microorganism in growth medium lacking the compound, protein, or peptide.
(§2) […] The concentration range for peptides in potato dextrose broth was 0.06-2 mcg/ml, the concentration range for fluconazole was 0.125-64 mcg/ml, and the concentration range for voriconazole was 0.03-16 mcg/ml. MICs were determined at 24-72 hours.

[6] = test system: Candida auris; test: MIC by CLSI M27/M38 methodology; format: cell-based; settings: Table 8
Description: as §1, §2

[7] = test system: Fusarium (F. solani); test: MIC by CLSI M27/M38 methodology; format: cell-based; settings: Fusarium isolate F4 (F. solani); Table 8
Description: as §1, §2

[8] = test system: Aspergillus fumigatus; test: MIC by CLSI M27/M38 methodology; format: cell-based; settings: Table 8
Description: as §1, §2

[9] = test system: Candida albicans; test: MIC by CLSI M27/M38 methodology; format: cell-based; settings: Table 8
Description: as §1, §2

[10] = test system: C. parapsilosis; test: MIC by CLSI M27/M38 methodology; format: cell-based, Candida parapsilosis; settings: C. parapsilosis isolate ATCC 22019; Table 8
Description: as §1, §2

[11] = Coccidioides sp. isolate Cocci1
[12] = Coccidioides sp. isolate Cocci2
[13] = Coccidioides sp. isolate DI17-143
[14] = Fusarium isolate F1 (F. oxysporum)
[15] = Fusarium isolate F2 (F. oxysporum)
[16] = Aspergillus fumigatus isolate AF293
[17] = Aspergillus fumigatus isolate DI15-106
[18] = Aspergillus fumigatus isolate DI15-116
[19] = Candida albicans isolate ATCC 90028
[20] = Candida albicans isolate SC5314

Compound | MIC, 100% [4, 11] | MIC, 100% [4, 12] | MIC, 100% [4, 13] | MIC, 100% [5, 14] | MIC, 100% [5, 15] | MIC, 100% ([6]; Candida auris isolate DI17-46) | MIC, 100% ([6]; Candida auris isolate DI17-47) | MIC, 100% ([6]; Candida auris isolate DI17-48) | MIC, 100% [7] | MIC, 100% [8, 16] | MIC, 100% [8, 17] | MIC, 100% [8, 18] | MIC, 100% [9, 19] | MIC, 100% ([9]; Candida albicans isolate CA3) | MIC, 100% [9, 20] | MIC, 100% [10] | antifungal activity relative to the wild-type GMA4C_AC control [3] | other results
C[C@@H](O)[C@H](NC(=O)[C@H](CS)NC(=O)[C@H](Cc1ccccc1)NC(=O)[C@H](CS)NC(=O)[C@H](CCCNC(=N)N)NC(=O)[C@H](CCCNC(=N)N)NC(=O)[C@H](CCCNC(=N)N)NC(=O)[C@H](Cc1ccccc1)NC(=O)CNC(=O)[C@H](CCCNC(=N)N)NC(=O)[C@H](CS)NC(=O)[C@H](CCCNC(=N)N)NC(=O)CNC(=O)CN)C(=O)N[C@H](C(=O)N[C@@H](Cc1c[nH]cn1)C(=O)N[C@@H](CS)C(N)=O)[C@@H](C)O [GMA4C_AC] (H-GGRCRGFRRRCFCTTHC-NH2; N-terminus assumed) |  |  |  |  |  |  |  |  |  |  |  |  |  |  |  |  |  | F. graminearum MIC [1]: 3 µM; MIC Fusarium graminearum [1]: 3 µM (≈ 6.05 µg/mL); MIC Values against F. graminearum [1]: 6 µM (≈ 12.1 µg/mL); SFM + 2 mM CaCl2 MIC ([2]; SFM + 2 mM CaCl2, Table 10): >6 (a few μM
CC[C@H](C)[C@H](NC(=O)[C@H](CCCNC(=N)N)NC(=O)[C@@H](NC(=O)[C@H](CS)NC(=O)[C@H](Cc1ccccc1)NC(=O)[C@H](CS)NC(=O)[C@H](CCCNC(=N)N)NC(=O)[C@H](CCCNC(=N)N)NC(=O)[C@H](CCCNC(=N)N)NC(=O)[C@H](Cc1ccccc1)NC(=O)CNC(=O)[C@H](CCCNC(=N)N)NC(=O)[C@H](CS)NC(=O)[C@H](CCCNC(=N)N)NC(=O)CNC(=O)CN)[C@@H](C)O)C(=O)N[C@@H](CS)C(N)=O [GMA4C_V2A] (H-GGRCRGFRRRCFCTRIC-NH2; N-terminus assumed) | 8 µg/mL (≈ 3.91 µM) | 16 µg/mL (≈ 7.82 µM) | 16 µg/mL (≈ 7.82 µM) | 8 µg/mL (≈ 3.91 µM) | 16 µg/mL (≈ 7.82 µM) | 16 µg/mL (≈ 7.82 µM) | 16 µg/mL (≈ 7.82 µM) | 16 µg/mL (≈ 7.82 µM) | 8 µg/mL (≈ 3.91 µM) | 32 µg/mL (≈ 15.6 µM) | >32 µg/mL | >32 µg/mL | 16 µg/mL (≈ 7.82 µM) | 16 µg/mL (≈ 7.82 µM) | 16 µg/mL (≈ 7.82 µM) | 8 µg/mL (≈ 3.91 µM) |  | reduction in antifungal activity relative to the wild-type GMA4C_AC control ([3]; against B. cinerea and F. graminearum): two-fold reduction
N=C(N)NCCC[C@H](NC(=O)CNC(=O)[C@@H](N)Cc1ccccc1)C(=O)N[C@@H](CS)C(=O)N[C@@H](CCCNC(=N)N)C(=O)NCC(=O)N[C@@H](Cc1ccccc1)C(=O)N[C@@H](CCCNC(=N)N)C(=O)N[C@@H](CCCNC(=N)N)C(=O)N[C@@H](CCCNC(=N)N)C(=O)N[C@@H](CS)C(=O)N[C@@H](Cc1ccccc1)C(=O)N[C@@H](CS)C(=O)N[C@@H](Cc1c[nH]c2ccccc12)C(=O)N[C@@H](CCCNC(=N)N)C(=O)N[C@@H](Cc1c[nH]c2ccccc12)C(=O)N[C@@H](CS)C(N)=O [GMA4C_V4A] (H-FGRCRGFRRRCFCWRWC-NH2; N-terminus assumed) | 4 µg/mL (≈ 1.74 µM) | 16 µg/mL (≈ 6.97 µM) | 16 µg/mL (≈ 6.97 µM) | 8 µg/mL (≈ 3.49 µM) | 8 µg/mL (≈ 3.49 µM) | 8 µg/mL (≈ 3.49 µM) | 8 µg/mL (≈ 3.49 µM) | 8 µg/mL (≈ 3.49 µM) | 8 µg/mL (≈ 3.49 µM) | 16 µg/mL (≈ 6.97 µM) | 16 µg/mL (≈ 6.97 µM) | 32 µg/mL (≈ 13.9 µM) | 8 µg/mL (≈ 3.49 µM) | 8 µg/mL (≈ 3.49 µM) | 8 µg/mL (≈ 3.49 µM) | 8 µg/mL (≈ 3.49 µM) | equivalent to the wild-type GMA4C_AC control | fungal growth inhibition at 6 μM ([2]; B. cinerea, in presence of 2 mM CaCl2, peptide 6 μM): inhibit fungal growth; potency of antifungal activity relative to GMA4C_AC ([2]; B. cinerea, in presence of 100 mM NaCl or 100 mM KCl): 2 fold
NCC[C@H](NC(=O)CNC(=O)[C@@H](N)Cc1ccccc1)C(=O)N[C@@H](CS)C(=O)N[C@@H](CCN)C(=O)NCC(=O)N[C@@H](Cc1ccccc1)C(=O)N[C@@H](CCN)C(=O)N[C@@H](CCN)C(=O)N[C@@H](CCN)C(=O)N[C@@H](CS)C(=O)N[C@@H](Cc1ccccc1)C(=O)N[C@@H](CS)C(=O)N[C@@H](Cc1c[nH]c2ccccc12)C(=O)N[C@@H](CCN)C(=O)N[C@@H](Cc1c[nH]c2ccccc12)C(=O)N[C@@H](CS)C(N)=O [GMA4C_V5A, FG(Dab)C(Dab)GF(Dab)(Dab)(Dab)CFCW(Dab)WC-NH2] (H-FG[Dab]C[Dab]GF[Dab][Dab][Dab]CFCW[Dab]WC-NH2; N-terminus assumed) | 2 µg/mL (≈ 1.02 µM) | 16 µg/mL (≈ 8.17 µM) | 16 µg/mL (≈ 8.17 µM) | 8 µg/mL (≈ 4.08 µM) | 16 µg/mL (≈ 8.17 µM) | 16 µg/mL (≈ 8.17 µM) | 16 µg/mL (≈ 8.17 µM) | 16 µg/mL (≈ 8.17 µM) | 8 µg/mL (≈ 4.08 µM) | 32 µg/mL (≈ 16.3 µM) | >32 µg/mL | >32 µg/mL | 16 µg/mL (≈ 8.17 µM) | 8 µg/mL (≈ 4.08 µM) | 16 µg/mL (≈ 8.17 µM) | 8 µg/mL (≈ 4.08 µM) | equivalent to the wild-type GMA4C_AC control | 
